# Assay results from publication PMC11413854, “Reversible Control of Native GluN2B-Containing NMDA Receptors with Visible Light” (ACS Chemical Neuroscience, 2024).
# Entries after “also recorded” stand apart in the source; their conditions may differ. Like-named read-outs stand apart in the source and are kept apart here.
# Tests used:
# GluN1/GluN2B NMDARs = conditions: cited from earlier work; for Ki or IC50: Sup. Fig. 2G, Ki or IC50 not specified
# [1] = test system: cultured cortical neurons at DIV 14; assay: NMDA excitotoxicity test, neuronal survival by MTT; assay type: cell-based, mouse; conditions: for neuronal survival: 5 µM inhibitor + 100 µM NMDA + 10 µM glycine; for % of survival, Mean: compound 5µM with NMDA 100µM, MTT A(540 nm) normalized to control (100) and NMDA alone (0)
# Description: We first investigated whether OptoNAM-3 could be used in the context of a patho-physiological process related to GluN1/GluN2B receptors. Overactivation of NMDARs induced by tonic exposure to glutamate or NMDA is well-known to trigger neuronal death.[6] GluN1/GluN2B receptors are thought to be the major player of this neurotoxicity, and GluN1/GluN2B antagonists have proven to be potent neuroprotectants in vitro and in vivo.[5],[15] To test the neuroprotective activity of OptoNAM-3 and its photodependence of action, we performed a protocol of excitotoxicity based on exposure to NMDA (100 μM) of cultured cortical neurons at DIV 14,[15] in the presence of OptoNAM-3. […] OptoNAM-3 in the dark, at a concentration of 5 μM, induced, like ifenprodil, an ∼50% increase in cell survival (Figure S4). […] OptoNAM-3 is therefore able to promote cell survival in neuron cultures in a photodependent manner.
# Mice were housed in the IBENS rodent central facility duly accredited by the French Ministry of Agriculture. All experiments were performed in compliance with French and European regulations on care and protection of laboratory animals (EU Directive 2010/63, French Law 2013–118, February 6, 2013), and were approved by local ethics committees and by the French Ministry of Research and Innovation (authorization numbers #05137.02, APAFIS #28867-2020121814485893). Dissociated cultures of cortical neurons were prepared from mouse embryos at E18 as described previously.[84] After removing meninges, cortices were placed in ice-cold HBSS solution. Cell dissociation was performed individually for cortices of each embryo. Cortices were incubated in 2.5% trypsin at 37 °C for 7 min, rinsed three times with 37 °C phosphate buffer saline, and finally suspended in plating medium (Neurobasal Medium, supplemented with 0.5 mM L-glutamine, 1% B27 supplement, and penicillin/streptomycin). The neurons were further dissociated by trituration, and cells were plated on poly-D-lysine coated coverslips in 24-well culture dishes at a density of 3 × 10^5 cells per well for the excitotoxicity test and that of 1 × 10^5 cells per well for patch clamp experiments. Cultures were incubated at 37 °C in a humidified atmosphere of 5% CO2. Cells were fed by changing 1/2 medium to fresh Neurobasal medium every 4 days. For the excitotoxicity experiments, after 5 days in vitro, growth of non-neuronal cells was halted by a 24 h exposure to FDX ([…] 5-fluoro-2′-deoxyuridine). The cultures were used for experiments after 6 to 14 days in vitro (DIV6–8 for patch clamp experiments and DIV14 for excitotoxicity tests).
# Excitotoxicity tests were performed 14 days after the culturing step as described in ref[15]. Just before the experiments, the neuronal medium was changed and the neurons incubated in the external patch recording solution (see above). Two replicates of 24 well plates containing cultured cortical neurons were exposed to the same 4 conditions, in which the following compounds were added to the medium: (1) glycine (10 μM) alone (control); (2) glycine (10 μM) + NMDA (100 μM); (3) glycine (10 μM) + NMDA (100 μM) + 5 μM ifenprodil; and (4) glycine (10 μM) + NMDA (100 μM) + 5 μM trans-OptoNAM-3 (dark). One of the two plates was exposed to UV light (Jena analytic US, UVP Hand-held UV lamp UVGL-58, power ∼1 mW) for 2 min. The two plates were then put back in the 37 °C incubator for 10 min. Agonist exposure was terminated by washing out the exposure solution with conditioned Neurobasal medium, prior to returning the dishes to the incubator for 24 h before assessment of neuronal death.
# Overall neuronal cell death was determined 24 h after NMDA exposure by the MTT test. Mitochondrial and cytosolic dehydrogenases of living cells reduce the yellow tetrazolium salt (MTT) to produce a purple formazan dye that can be detected spectrophotometrically.[85] […]
# [2] = molecular target: T1, GluN1/GluN2B NMDA receptors (UniProt P35439+Q01097); assay: TEVC electrophysiology on Xenopus oocytes expressing wt GluN1/GluN2B NMDARs; assay type: cell-based, rat GluN1, mouse GluN2B; conditions: theoretical dose-response curve of a pure cis population calculated from 365 and 350 nm PSS
# T1 construct: expressed in transfected cells; host or cells: Xenopus laevis oocytes (nuclear cDNA injection)
# T1 sequence (Q01097 27-1482, other chains not shown): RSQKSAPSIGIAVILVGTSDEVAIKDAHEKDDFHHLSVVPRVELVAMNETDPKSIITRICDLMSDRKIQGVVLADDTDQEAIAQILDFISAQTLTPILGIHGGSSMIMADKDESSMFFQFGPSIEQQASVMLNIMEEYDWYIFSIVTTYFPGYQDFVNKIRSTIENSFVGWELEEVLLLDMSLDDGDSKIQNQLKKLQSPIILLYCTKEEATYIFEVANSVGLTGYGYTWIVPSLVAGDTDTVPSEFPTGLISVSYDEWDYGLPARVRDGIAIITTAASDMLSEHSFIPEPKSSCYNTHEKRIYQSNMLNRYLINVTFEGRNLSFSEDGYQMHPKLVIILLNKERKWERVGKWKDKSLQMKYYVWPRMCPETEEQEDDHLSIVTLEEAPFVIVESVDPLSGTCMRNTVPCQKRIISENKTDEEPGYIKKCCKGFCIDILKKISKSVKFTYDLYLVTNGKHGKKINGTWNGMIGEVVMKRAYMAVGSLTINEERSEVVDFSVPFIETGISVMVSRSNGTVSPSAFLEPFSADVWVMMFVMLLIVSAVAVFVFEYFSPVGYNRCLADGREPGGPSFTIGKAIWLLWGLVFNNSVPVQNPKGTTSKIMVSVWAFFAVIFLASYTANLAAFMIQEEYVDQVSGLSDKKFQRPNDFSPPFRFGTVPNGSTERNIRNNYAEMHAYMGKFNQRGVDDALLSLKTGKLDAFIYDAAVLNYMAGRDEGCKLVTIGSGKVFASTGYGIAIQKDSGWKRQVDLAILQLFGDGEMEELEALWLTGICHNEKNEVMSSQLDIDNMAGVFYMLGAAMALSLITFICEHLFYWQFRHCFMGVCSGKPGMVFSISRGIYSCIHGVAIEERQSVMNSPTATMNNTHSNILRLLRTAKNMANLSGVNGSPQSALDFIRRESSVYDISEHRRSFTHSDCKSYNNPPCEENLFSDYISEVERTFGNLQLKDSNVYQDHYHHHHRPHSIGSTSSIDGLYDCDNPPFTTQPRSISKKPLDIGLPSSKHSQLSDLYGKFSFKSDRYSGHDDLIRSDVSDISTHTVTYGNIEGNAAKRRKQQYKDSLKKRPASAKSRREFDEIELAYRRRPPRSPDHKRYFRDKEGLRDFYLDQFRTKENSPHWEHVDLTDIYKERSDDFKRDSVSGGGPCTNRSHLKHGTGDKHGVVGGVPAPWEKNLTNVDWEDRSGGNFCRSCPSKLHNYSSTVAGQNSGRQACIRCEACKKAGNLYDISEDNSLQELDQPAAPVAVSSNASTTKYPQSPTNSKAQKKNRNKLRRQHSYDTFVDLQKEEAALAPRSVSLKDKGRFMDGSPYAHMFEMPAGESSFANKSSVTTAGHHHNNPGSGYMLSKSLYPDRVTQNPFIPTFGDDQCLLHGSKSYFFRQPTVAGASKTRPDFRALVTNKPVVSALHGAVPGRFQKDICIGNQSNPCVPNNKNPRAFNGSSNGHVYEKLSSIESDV
# Description: The activity of OptoNAM-3 was functionally monitored by electrophysiology on Xenopus oocytes (see Methods). To assess the light-dependent effect, we tested the activities of the dark PSS (mostly trans) and the UV PSS (mostly cis, see above) separately. For each concentration, we prepared a solution divided into two samples: one in which the compound was kept in the dark for the duration of the experiment (dark PSS state); and the other that was preilluminated with either 350 or 365 nm light (350 or 365 nm PSS) and then kept away from the light for the duration of the experiment in order to avoid photoisomerization of the compounds by ambient light (see Methods). […] We generated dose–response curves of OptoNAM-3 dark and UV PSS on wild-type (wt) GluN1/GluN2B NMDA receptors (Figure 3A) in the presence of saturating concentrations of agonists (100 μM glutamate and glycine).
# We used cDNA coding for rat GluN1–1a (named GluN1 herein) (GenBank: U08261.1), rat GluN2A (GenBank: D13211.1), mouse GluN2B (GenBank: D10651.2), rat GluA1 flop (GenBank: M36418.2), and rat Myc-GluA2(Q)-flip (GenBank: AF164344.1) cloned into pcDNA3-based expression plasmids. GluK2 (GenBank: Z11548.1) corresponds to the fully RNA-edited version.[80] The GluN2B-ΔNTD construct is from ref[45] and GluN2B–N615K is from ref[81]. Single mutants GluN2B-Q110G and GluN1-L135H were from ref[19]. The GluA2 cDNA contains a Myc tag ([…]) fused between the signal peptide and the N-terminus sequences, and the GluA2 subunit is […] for its Q/R/N site (GluA2(Q)) to allow permeation of homomeric GluA2 receptors.[2] cDNAs coding for rat GluN2C (GenBank: M91563.1) and GluN2D subunits (GenBank: L31611.1) were in prK5 plasmids.
# Oocytes from Xenopus laevis were used for heterologous expression of recombinant NMDA receptors studied using a two-electrode voltage clamp (TEVC). Female Xenopus laevis were housed and ovary bags harvested according to the European Union guidelines (husbandry authorizations #C75–05–31 and #D75–05–31; project authorizations #05137.02; and Apafis #28867–2020121814485893). Fragments of ovary bags were also purchased from the “Centre de Ressources Biologiques Xenopes” (now TEFOR, Paris Saclay, France) and from the European Xenopus Resource Center (EXRC, Portsmouth, UK). Xenopus laevis oocytes were harvested and prepared as previously described in ref[82].
# Expression of recombinant NMDA receptors was obtained by oocyte nuclear coinjection of 37 nL of a mixture of cDNAs (at 30 ng/μL) coding for GluN1–1a and various GluN2 subunits (ratio 1:1). The protocol in ref[43] was followed for the expression of GluN1/GluN2A/GluN2B triheteromers. The oocytes were transferred in 96-well plates filled with Barth solution (in mM: 88 NaCl, 1 KCl, 0.33 Ca(NO3)2, 0.41 CaCl2, 0.82 MgSO4, 2.4 NaHCO3, and 7.5 HEPES, pH adjusted to 7.3 with NaOH), supplemented with gentamicin ([…]) and 50 μM APV, a selective NMDA receptor antagonist. Plates were then stored at 18 °C for 24 h for GluN1/GluN2A expression and for 48––72 h for the expression of GluN1/Glu2B, GluN1/GluN2A/GluN2B, and mutants.
# TEVC recordings were performed 1–3 days following injection. TEVC recordings were performed using an Oocyte Clamp amplifier OC-725 (Warner Instruments) and computer-controlled via a 1440A Digidata (Molecular Devices). Currents were sampled at 100 Hz and low-pass-filtered at 20 Hz using an 8-pole Bessel filter (900 Series, Frequency Devices Inc.).
smiles,measurement,setting,value
Cc1cc(N)nc(/C=C/c2ccccc2)c1 [parent compound 2],Ki or IC50,GluN1/GluN2B NMDARs; ref: ref. 40,10 nM
same,IC50,"GluN1/GluN2B NMDARs; ref 2,6 (SI), read-out: Parent compound IC50",10 nM
Nc1ccnc(N2CCc3ccccc3C2)c1 [9n = Compound 1],Ki or IC50,GluN1/GluN2B NMDARs; ref: ref. 39,3 nM
CC(C(O)c1ccc(O)cc1)N1CCC(Cc2ccccc2)CC1 (stereo not drawn) [ifenprodil],neuronal survival,"[1]; 2 min UV (365 nm), normalized to control and NMDA",not affected; also recorded: No photodependent effect
same,neuronal survival,"[1]; dark, normalized to control (100%) and NMDA (0%)",60%
same,"% of survival, Mean",[1]; Dark,59.345%
same,"% of survival, Mean",[1]; UV,59.393%
Nc1ccnc(N2CCc3ccccc3C2)c1 [parent compound 1],Ki,"GluN1/GluN2B NMDARs; ref 3 (SI), read-out: Parent compound Ki",3 nM
c1ccc(/N=N\c2ccc(CCNc3ccncc3)cc2)cc1 [cis-OptoNAM-3],activity of the cis isomer on GluN1/GluN2B NMDARs,[2],inactive
